The source of these data is patent publication US20260182575A1, “MOLECULES HAVING PESTICIDAL UTILITY AND INTERMEDIATES AND PROCESSES RELATED THERETO” (CORTEVA AGRISCIENCE LLC, priority 2022, published 2026).

The first test has as its system Beet Armyworm (Spodoptera exigua, LAPHEG, BAW). Description: Bioassay 7: beet armyworm, artificial diet, 96 well plate. The format is in vivo. As to conditions: AI alone at 0.04 wt %. As to the method: (§1) The test solutions were tested against CEW, FAW, BAW, and SBL using the following procedure: an artificial lepidopteran diet (Multispecies Lepidopteran Diet, Southland Products) was distributed in 96 well plate. Twenty μL of test solution was pipetted onto a cell in the bioassay plate. […] Each treatment was replicated 5 times for each species. Approximately five first instar CEW, FAW, BAW, or SBL larva were placed on top of the diet in each cell and was contained with a clear perforated adhesive lid. Test trays were held at approximately 25° C. and ambient relative humidity prior to grading. After five days, the number of cells where all the larvae were dead were recorded as 100% and averaged across all replicates; then the percent control was measured using Abbott's correction formula (W. S. Abbott, J. Econ. Entomol. 18 (1925), pp. 265-267) as follows:
(§2) where X=No. of live larvae on solvent check and Y=No. of live larvae on treated diet. In Table 7 the “Expected % Control” was calculated using the method described in Colby S. R., Weeds, 1967, 15, 20-22. Bioassay 8: Western Corn Rootworm (Diabrotica virgifera virgifera, DIABVI, “WCR”)
Take `CO/C=C(/C(=O)OC)c1ccccc1COc1cccc(C(F)(F)F)n1` [Picoxystrobin]: the “Average % Control AI” value was determined as 0.0%.

Staying with this test, now noted: AI alone at 0.4 wt %.
With `O=S(=O)(CCC(F)=C(F)F)c1ncc(Cl)s1` [Fluensulfone], the “Average % Control AI” value turned out to be 0.0%.

As to `O=C(NCCc1ncc(C(F)(F)F)cc1Cl)c1ccccc1C(F)(F)F` [Fluopyram], the “Average % Control AI” value is on record as 0.0%.

Turning to `Cn1cc(C(=O)Nc2ccccc2-c2cc(F)c(F)c(F)c2)c(C(F)F)n1` [Fluxapyroxad], the “Average % Control AI” value amounted to 0.0%.

As to `CC(C)C1CCC(Cc2ccc(Cl)cc2)C1(O)Cn1cncn1` (centres unmarked) [Ipconazole], the “Average % Control AI” value is given as 0.0%.

`CC(C)c1ccc(Cl)cc1CN(C(=O)c1c(C(F)F)nn(C)c1F)C1CC1` [Isoflucypram]: the “Average % Control AI” value worked out at 0.0%.

Regarding `CC(O)(Cn1cncn1)c1ccc(Oc2ccc(Cl)cc2)cc1C(F)(F)F` (centres unmarked) [Mefentrifluconazole], the “Average % Control AI” value is on record as 0.0%.

In the case of `CC1(C)CCC(Cc2ccc(Cl)cc2)C1(O)Cn1cncn1` (centres unmarked) [Metconazole], the “Average % Control AI” value turned out to be 0.0%.

Consider `CNC(=O)O/N=C(\SC)C(=O)N(C)C` [Oxamyl], for which the “Average % Control AI” value was 0.0%.

In the case of `CON(C(=O)c1cn(C)nc1C(F)F)C(C)Cc1c(Cl)cc(Cl)cc1Cl` (centres unmarked) [Pydiflumetofen], the “Average % Control AI” value turned out to be 0.0%.

With `Cc1cc(C)c(C2=C(OC(=O)CC(C)(C)C)C3(CCCC3)OC2=O)c(C)c1` [Spiromesifen], the “Average % Control AI” value turned out to be 12.5%.

In the case of Trifloxystrobin, the “Average % Control AI” value amounted to 20.0%.

Another test deals with Corn Earworm (Helicoverpa zea, HELIZE, CEW). The test is described as follows: Bioassay 7: corn earworm, artificial diet, 96 well plate. The test is classed as in vivo. As to conditions: AI alone at 0.04 wt %. On the procedure: as §1, §2
Consider `CO/C=C(/C(=O)OC)c1ccccc1COc1cccc(C(F)(F)F)n1` [Picoxystrobin], for which the “Average % Control AI” value stood at 0.0%.

For `COC(=O)N(OC)c1ccccc1COc1ccn(-c2ccc(Cl)cc2)n1` [Pyraclostrobin], the “Average % Control AI” value is 0.0%.

The same test, now with this note: AI alone at 0.4 wt %.
As to `CCNc1nc(CC)c(C(=O)NC(C#N)c2cccs2)s1` (centres unmarked) [Ethaboxam], the “Average % Control AI” value amounted to 12.5%.

As for `COc1ccc(Cl)c(S(=O)(=O)NC(=O)c2cn3cc(C(F)(F)F)cc(Cl)c3n2)c1` [Fluazaindolizine], the “Average % Control AI” value is listed as 0.0%.

Regarding `O=S(=O)(CCC(F)=C(F)F)c1ncc(Cl)s1` [Fluensulfone], the “Average % Control AI” value amounted to 0.0%.

Regarding `CC(C)C1CCC(Cc2ccc(Cl)cc2)C1(O)Cn1cncn1` (centres unmarked) [Ipconazole], the “Average % Control AI” value stood at 0.0%.

Consider `CC(O)(Cn1cncn1)c1ccc(Oc2ccc(Cl)cc2)cc1C(F)(F)F` (centres unmarked) [Mefentrifluconazole], for which the “Average % Control AI” value was 0.0%.

Turning to `CNC(=O)O/N=C(\SC)C(=O)N(C)C` [Oxamyl], the “Average % Control AI” value worked out at 0.0%.

With `Cc1cc(C(F)(F)F)nn1CC(=O)N1CCC(c2nc(C3=NOC(c4c(F)cccc4F)C3)cs2)CC1` (centres unmarked) [Oxathiapiprolin], the “Average % Control AI” value was 0.0%.

As for Thiram, the “Average % Control AI” value is recorded as 0.0%.

As to Trifloxystrobin, the “Average % Control AI” value is 0.0%.

The test system of a further test is Soybean Looper (Chrysodeixis includens, PSEPIN, SBL). The test is described as follows: Bioassay 7: soybean looper, artificial diet, 96 well plate. The format is in vivo. The following applies: CL; AI alone at 0.04 wt %. On the procedure:
as §1, §2
Turning to `CO/C=C(/C(=O)OC)c1ccccc1COc1cccc(C(F)(F)F)n1` [Picoxystrobin], the “Average % Control AI” value turned out to be 0.0%.

In the case of `COC(=O)N(OC)c1ccccc1COc1ccn(-c2ccc(Cl)cc2)n1` [Pyraclostrobin], the “Average % Control AI” value came out at 0.0%.

Staying with this test, now noted: CL; AI alone at 0.4 wt %.
For the compound `[Cu+2].[OH-].[OH-]` [Copper Hydroxide], the “Average % Control AI” value is reported as 0.0%.

Consider `CCNc1nc(CC)c(C(=O)NC(C#N)c2cccs2)s1` (centres unmarked) [Ethaboxam], for which the “Average % Control AI” value came out at 0.0%.

For `COc1ccc(Cl)c(S(=O)(=O)NC(=O)c2cn3cc(C(F)(F)F)cc(Cl)c3n2)c1` [Fluazaindolizine], the “Average % Control AI” value is reported as 0.0%.

On to `O=S(=O)(CCC(F)=C(F)F)c1ncc(Cl)s1` [Fluensulfone], for which the “Average % Control AI” value amounted to 12.5%.

Take `CC(C)c1ccc(Cl)cc1CN(C(=O)c1c(C(F)F)nn(C)c1F)C1CC1` [Isoflucypram]: the “Average % Control AI” value came out at 0.0%.

With `CNC(=O)O/N=C(\SC)C(=O)N(C)C` [Oxamyl], the “Average % Control AI” value was 0.0%.

On to `Cc1cc(C(F)(F)F)nn1CC(=O)N1CCC(c2nc(C3=NOC(c4c(F)cccc4F)C3)cs2)CC1` (centres unmarked) [Oxathiapiprolin], for which the “Average % Control AI” value is recorded as 0.0%.

For the compound `CON(C(=O)c1cn(C)nc1C(F)F)C(C)Cc1c(Cl)cc(Cl)cc1Cl` (centres unmarked) [Pydiflumetofen], the “Average % Control AI” value was 0.0%.

In the case of `Cc1cc(C)c(C2=C(OC(=O)CC(C)(C)C)C3(CCCC3)OC2=O)c(C)c1` [Spiromesifen], the “Average % Control AI” value was 12.5%.

Turning to Thiram, the “Average % Control AI” value is reported as 0.0%.

The next test deals with Fall Armyworm (Spodoptera frugiperda, LAPHFR, FAW). The test is described as follows: Bioassay 7: fall armyworm, artificial diet, 96 well plate. The format is in vivo. The following applies: AI alone at 0.004 wt %. As to the method: as §1, §2
As to `CN(C(=O)c1ccccc1)c1cccc(C(=O)Nc2c(Br)cc(C(F)(C(F)(F)F)C(F)(F)F)cc2C(F)(F)F)c1F` [Broflanilide], the “Average % Control AI” value stood at 0.0%.

The test is the same for the next values; noted with them: AI alone at 0.4 wt %.
As for `CCNc1nc(CC)c(C(=O)NC(C#N)c2cccs2)s1` (centres unmarked) [Ethaboxam], the “Average % Control AI” value worked out at 0.0%.

In the case of `COc1ccc(Cl)c(S(=O)(=O)NC(=O)c2cn3cc(C(F)(F)F)cc(Cl)c3n2)c1` [Fluazaindolizine], the “Average % Control AI” value turned out to be 0.0%.

`O=S(=O)(CCC(F)=C(F)F)c1ncc(Cl)s1` [Fluensulfone]: the “Average % Control AI” value was 0.0%.

With `CC(C)C1CCC(Cc2ccc(Cl)cc2)C1(O)Cn1cncn1` (centres unmarked) [Ipconazole], the “Average % Control AI” value is on record as 0.0%.

Regarding `CNC(=O)O/N=C(\SC)C(=O)N(C)C` [Oxamyl], the “Average % Control AI” value turned out to be 0.0%.

In the case of `CON(C(=O)c1cn(C)nc1C(F)F)C(C)Cc1c(Cl)cc(Cl)cc1Cl` (centres unmarked) [Pydiflumetofen], the “Average % Control AI” value was determined as 0.0%.

With `Cc1cc(C)c(C2=C(OC(=O)CC(C)(C)C)C3(CCCC3)OC2=O)c(C)c1` [Spiromesifen], the “Average % Control AI” value was found to be 12.5%.

In the case of Trifloxystrobin, the “Average % Control AI” value is recorded as 16.6%.
